Patent US7541463B2, “Sulfur-containing naphthalimide derivatives” (East China University of Science and Technology, priority 2003, dated 2009)

Experiments:
[1] = system: human lung adenocarcinoma cell A-549; assay: Growth inhibition of A-549 cells, SRB protein staining assay; format: cell-based; details: read-out: Growth inhibition effect to A-549 cell strain; for inhibition at 100 µM: A549, 10^−4 M; for inhibition at 10 µM: A549, 10^−5 M; for inhibition at 1 µM: A549, 10^−6 M; for inhibition at 0.1 µM: A549, 10^−7 M; for inhibition at 0.01 µM: A549, 10^−8 M
Procedure: (§1) The cell growth inhibition of mice leukemia cell P388 was evaluated by MTT (microculture tetrozolium) assay, while the cell growth inhibition of human lung adenocarcinoma cell A-549 was evaluated by SRB (Sulforhodamine B) protein staining assay.
The procedure of SRB assay was as follows: appropriate amount of cells in log phase were seeded in 96-well plates according to the growing rate (90 ul/well). After cultured for 24 h, cells were exposed to serial dilutions of drugs in triplicate (10 ul/well). In addition, control wells of normal saline in corresponding concentrations and zeroing wells without cell were set. The cells were incubated in 5% CO2 humidified incubator at 37° C. After 72 h, the medium was removed and cells were fixed with cold 10% trichloric acid (TCA) at 4° C. for 1 h. The plates were washed with distilled water 5 times, and stained in room temperature with 4 mg/ml SRB (Sigma, diluted with 1% glacial acetic acid, 100 ul/well) for 15 minutes after air drying. SRB was then washed with 1% acetic acid 5 times. Plates were dried, followed by adding 150 ul/well Tris solution. Absorbance was measured at […] using a multiwell spectrophotometer. The inhibition effect of the compounds in test (percentage of growth inhibition) was calculated for each well: % inhibition=(A540control cells−A540treated cells)/A540control cells×100%.
(§2) The cell lines used were mice leukemia cell P388, human leukemia cell MOLT-4, human lung adenocarcinoma cell A-549, human gastric adenocarcinoma SGC-7901, human hepatocellular carcinoma BEL-7402 and human embryonal fibroblast WI-38 (commerially available from ATCC).
(§3) The exposure time to compounds was 48 h-72 h.

[2] = system: mice leukemia cell P388; assay: Growth inhibition of P388 cells, MTT assay; format: cell-based; details: Mus musculus, read-out: Growth inhibition effect to P388 cell strain; for inhibition at 100 µM: 10^−4 M; for inhibition at 10 µM: 10^−5 M; for inhibition at 1 µM: 10^−6 M; for inhibition at 0.1 µM: 10^−7 M; for inhibition at 0.01 µM: 10^−8 M
Procedure: as §1
The procedure of MTT assay was as follows: appropriate amount of cells in log phase were seeded in 96-well plates (6000 cells/well, 15000 cells/well, 90ul/well) according to the growing rate. After cultured for 24 h, cells were exposed to serial dilutions of drugs in triplicate (10 ul/well). In addition, wells without cell, and wells without cell but with serial dilutions of drugs in case of using a colored-drug were set for zeroing. Then, the cells were cultured in 5% CO2 humidified incubator at 37° C. for 48 h. After treatment of drugs for 48 h, 20ul MTT (Sigma) which was diluted by normal saline to the concentration of 5 mg/ml was added to each well, 50ul/well 10%SDS-5% isobutanol-0.01% mol/LHCl was added after 4 h. After cultured overnight, absorbance was measured at 570 nm using a multiwell spectrophotometer. The inhibition effect of the compounds in test (percentage of growth inhibition) was calculated for each well: % inhibition=(OD570control cells−OD570treated cells)/OD570control cells×100%.
as §2, §3

Row | melting point | Structure (SMILES) | inhibition at 100 µM [1] | inhibition at 10 µM [1] | inhibition at 1 µM [1] | inhibition at 0.1 µM [1] | inhibition at 0.01 µM [1] | inhibition at 100 µM [2] | inhibition at 10 µM [2] | inhibition at 1 µM [2] | inhibition at 0.1 µM [2] | inhibition at 0.01 µM [2]
1 | 286 to 287 °C | O=c1c2ccc3sc4ccccc4c4ccc(c(=O)n1CCN1CCNCC1)c2c34 [compound 3, N-(2′-piperazinylethyl)benzo[k, l]thioxanthene-3,4-dicarboximide] | 78.6% | 92.4% | 69.8% | 4.7% | 0% | 100% | 100% | 22.2% | 0% | 0%
2 | 220 to 221 °C | CN(C)CCN1C(=O)c2cccc3c2c(cc2nc(-c4ccccc4)sc23)C1=O [compound 5, N-(N′,N′-dimethylaminoethyl)-4H, 6H-9-phenyl-benzo[de]thiazol[5,4-g]isoquinoline-4,6-diketone] | 94.8% | 91.5% | 73% | 69.7% | 17.8% | 96.6% | 87.7% | 48.2% | 21.1% | 8.1%
3 | 202 to 203 °C | Cc1ccc(-c2nc3cc4c5c(cccc5c3s2)C(=O)N(CCN(C)C)C4=O)cc1 [compound 6, N-(N′,N′-dimethylaminoethyl)-4H, 6H-9-p-methylphenyl-benzo[d, e]thiazol[5,4-g]isoquinoline4,6-diketone] | 95.8% | 92.3% | 52.7% | 31.5% | 7.1% | 96% | 74.7% | 47.7% | 29.3% | 13%
4 | 240 to 241 °C | CN(C)CCN1C(=O)c2cccc3c2c(cc2nc(-c4ccccc4O)sc23)C1=O [compound 8, N-(N′,N′-dimethylaminoethyl)-4H, 6H-9-o-hydroxyphenyl-benzo[de]thiazol[5,4-g]isoquinoline-4,6-diketone] | 95.2% | 59.6% | 18.6% | 1% | 0.2% | 94.8% | 45.9% | 24.9% | 10% | 8.8%
5 | 235 to 237 °C | CN(C)CCN1C(=O)c2cccc3c2c(cc2nc(-c4ccccc4Cl)sc23)C1=O [compound 10, N-(N′,N′-dimethylaminoethyl)-4H, 6H-9-o-chlorophenyl-benzo[de]thiazol[5,4-g]isoquinoline-4,6-diketone] | 91.4% | 93.4% | 94.5% | 35.7% | 12.5% | 96.1% | 89% | 64.6% | 40.5% | 7.3%
6 | 177 to 179 °C | CCCCN1C(=O)c2cccc3c2c(cc2nnsc23)C1=O [compound 12, 5-butyl-4H, 6H-benzo[de]-1,2,3,-thiadiazol[5,4-g]isoquinoline4,6-diketone] | 69.4% | 75.2% | 0% | 2.3% | 0% | 54.3% | 23.2% | 17.1% | 12.3% | 15.6%
7 | 101 to 102 °C | CN(C)CCCN1C(=O)c2cccc3c2c(cc2nnsc23)C1=O [compound 13, 5-(N′,N′-dimethylaminopropyl)-4H, 6H-benzo[de]-1,2,3,-thiadiazol[5,4-g]isoquinoline-4,6-diketone] | 95.9% | 94.4% | 90.6% | 0% | 0% | 99.5% | 89.2% | 19.8% | 11% | 14.5%
8 | 145 to 146 °C | O=C1c2cccc3c2c(cc2nnsc23)C(=O)N1CCN1CCNCC1 [compound 14, 5-(2′-piperazinylethyl)-4H, 6H-benzo[de]-1,2,3,-thiadiazol[5,4-g]isoquinoline-4,6-diketone] | 95.9% | 96.1% | 87.3% | 60.2% | 4.4% | 98.8% | 90.8% | 16.8% | 13.7% | 18.4%
9 | 170 to 172 °C | CCCCN1C(=O)c2cccc3c2c(cc2c4ccccc4sc32)C1=O [compound 15, N-butylbenzo[b] thieno[2,1-c]naphthalimide] | 94% | 45.6% | 0% | 0% | 0% | 51.8% | 26% | 3.2% | 3.2% | 5.8%
10 | 226 to 228 °C | O=C1c2cccc3c2c(cc2c4ccccc4sc32)C(=O)N1CCN1CCNCC1 [compound 17, N-(2′-piperazinylethyl)benzo[b]thieno[2,1-c] naphthalimide] | 91.1% | 95.4% | 46.8% | 0% | 1.7% | 100% | 100% | 23.9% | 4.5% | 2%
11 | 168 to 170 °C | CN(C)CCCN1C(=O)c2cccc3c2c(cc2c4ccccc4sc32)C1=O [compound 18, N-(N′,N′-dimethylaminopropyl)benzo[b]thieno[2,1-c] naphthalimide] | 95.3% | 96.9% | 81.1% | 47.2% | 1.7% | 100% | 100% | 29.8% | 17.1% | 5.5%
